Test results reported in patent US20220296595A1, “CDK INHIBITORS” (QILU REGOR THERAPEUTICS INC., priority 2019, published 2022).
Like-named read-outs stand apart in the source and are kept apart here.

Experiments:
CDK4/CyclinD1 = biological target: T1, CDK4/CyclinD1 (Homo sapiens, UniProt P11802); assay: Assay for inhibition of CDK4/CyclinD1 (Caliper microfluidic kinase assay); assay type: biochemical
T1 construct: purchased Thermofisher PR8064A
Summary of the method: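 Caliper microfluidic mobility-shift assay tracking phosphorylation of 1 μM FL-34 peptide by 1 nM CDK4/CyclinD1 with 200 μM ATP in HEPES pH 7.5 buffer with 10 mM MgCl2. Reaction ran 3 h at room temperature, was stopped with EDTA, and IC50 came from a 4-parameter sigmoidal fit.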

CDK6/CyclinD3 = biological target: T2, CDK6/CyclinD3 (Homo sapiens, UniProt Q00534); assay: Assay for inhibition of CDK6/CyclinD3 (Caliper microfluidic kinase assay); assay type: biochemical
T2 construct: purchased Carna 04-107
Description: The CDK6 enzyme assay for IC50 determination was performed as follows. Microfluidic kinase detection technology (Caliper) was used to monitor the phosphorylation of peptide substrate by CDK6/CyclinD3. The total reaction volume is 15 μL containing buffer A (100 mM HEPES (pH 7.5), 0.1% BSA, 0.01% Triton X-100, 1 mM DTT, 10 mM MgCl2, 10 μM Sodium Orthovanadate, 10 μM Beta-Glycerophosphate), 300 μM ATP, 2 nM CDK6/CyclinD3 (Carna, 04-107), 1 μM FL-34 (5-FAM-[…]), and the test compound at appropriate dilutions in DMSO. All components were added to the 384-well plate (Corning, 4514), and incubated at Room Temperature for 3 hours. The reaction was terminated by addition of 15 μL Stop Buffer (180 mM HEPES (pH 7.5), 20 mM EDTA, Coating-3 reagent (PerkinElmer, 760050)). The plate was then loaded on Caliper EZ Reader (EZ Reader II, PerkinElmer, HD-4HYSG2772), and the reaction mixtures including substrate and product were sipped into the microfluidic chip for separation and detection. The IC50 values of the test compound were determined by fitting the inhibition curves by 4 parameter sigmoidal dose-response model using the Xlfit5/GraphPad Prism 5 software.

CDK2/CyclinE1 = biological target: T3, CDK2/CyclinE1 (Homo sapiens, UniProt P24941); assay: Assay for inhibition of CDK2/CyclinE1 (Caliper microfluidic kinase assay); assay type: biochemical
T3 construct: purchased SignalChem C29-18G
Summary of the method: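 Caliper microfluidic mobility-shift assay: 5 nM CDK2/CyclinE1, 100 μM ATP, 5 μM FL-18 peptide (5-FAM-QSPKKG-NH2) in pH 7.5 HEPES buffer with MgCl2, DTT, BSA, Triton X-100. Incubated 3 hours at room temperature, EDTA-stopped; IC50 from 4-parameter sigmoidal fit.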

T47D breast cancer cells = assay: Anti-proliferation assay in T47D cell (Cyquant, day 6); assay type: cell-based, human; conditions: Homo sapiens, T47D, anti-proliferation, T47D cells; read-out: T47D IC50
Excerpt: T47D is a human breast cancer cell line commonly used in biomedical research involving the hormonal expression of cancer cells. T47D cells are distinct from other human breast cancer cells in that their progesterone receptors (PR) are not regulated by estradiol, a hormone that is abundant within the cells themselves. T47D cells have been employed in studies of the effects of progesterone on breast cancer and the corresponding transcriptional regulation caused by introduced drugs. The cells have been noted to be extremely resistant to estrogens and antiestrogens.
T47D breast cancer cells from American Type Culture Collection (ATCC, HTB-133) were plated at 3000 cells/well in 96-well plates, and were incubated in RPMI 1640 medium (Gibco, 31800105) with 10% Fetal Bovine Serum (FBS, Biowest, FB-1058) at 37° C., 5% CO2. After overnight incubation, baseline values were measured of the samples from one plate using Cyquant reagent (Invitrogen, C35011) following manufacturer's recommendations. Cells were incubated with the detection reagent for 1 hour at 37° C., and then the fluorescence was measured with excitation at 485 nm and emission at 535 nm using Spectra Max M5 (Molecular Devices, HD-4HYSG3196). Other plates were dosed with compounds at a ten-point dose concentration from 10 μM to 0.51 nM in a 3-fold dilution scheme. On day 6 after compound addition, Cyquant reagent was added and the fluorescence was measured using Spectra Max M5. The IC50 values of the test compound's anti-proliferation activity were determined from the baseline subtracted viability readout curve using Xlfit5/GraphPad Prism 5 software.

[1] = CDK2/CyclinE1, 100 μM ATP, read-out: CDK2 IC50
[2] = CDK2/CyclinE1, read-out: CDK2 IC50

T1 sequence (P11802 whole entry): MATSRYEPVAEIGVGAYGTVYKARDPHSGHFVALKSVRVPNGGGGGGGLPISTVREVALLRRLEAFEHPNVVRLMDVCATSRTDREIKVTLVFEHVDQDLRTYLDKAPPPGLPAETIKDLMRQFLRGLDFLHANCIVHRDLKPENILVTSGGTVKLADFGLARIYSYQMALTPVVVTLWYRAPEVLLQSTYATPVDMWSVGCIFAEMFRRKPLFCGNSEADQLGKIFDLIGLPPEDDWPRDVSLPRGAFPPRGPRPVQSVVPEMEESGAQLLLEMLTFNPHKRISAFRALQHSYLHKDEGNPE
T1 sequence (P24385 whole entry partner): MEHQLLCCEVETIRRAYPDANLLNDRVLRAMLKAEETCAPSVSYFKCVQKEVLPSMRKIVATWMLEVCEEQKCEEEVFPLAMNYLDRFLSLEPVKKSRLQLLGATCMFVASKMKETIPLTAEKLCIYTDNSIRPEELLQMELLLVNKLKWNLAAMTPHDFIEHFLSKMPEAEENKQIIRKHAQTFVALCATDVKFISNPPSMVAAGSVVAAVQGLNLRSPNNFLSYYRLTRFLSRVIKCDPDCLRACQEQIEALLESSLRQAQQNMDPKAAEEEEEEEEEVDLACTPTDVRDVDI
T2 sequence (Q00534 whole entry): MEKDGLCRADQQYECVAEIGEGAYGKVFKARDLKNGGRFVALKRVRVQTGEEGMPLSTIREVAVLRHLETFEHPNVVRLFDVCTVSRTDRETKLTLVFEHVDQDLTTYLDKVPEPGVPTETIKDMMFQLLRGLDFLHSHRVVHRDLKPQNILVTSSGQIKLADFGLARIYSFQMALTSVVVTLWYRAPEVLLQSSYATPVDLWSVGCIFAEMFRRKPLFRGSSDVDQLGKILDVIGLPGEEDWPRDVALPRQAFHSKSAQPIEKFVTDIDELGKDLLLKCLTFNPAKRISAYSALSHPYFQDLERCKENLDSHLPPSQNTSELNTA
T2 sequence (P30281 whole entry partner): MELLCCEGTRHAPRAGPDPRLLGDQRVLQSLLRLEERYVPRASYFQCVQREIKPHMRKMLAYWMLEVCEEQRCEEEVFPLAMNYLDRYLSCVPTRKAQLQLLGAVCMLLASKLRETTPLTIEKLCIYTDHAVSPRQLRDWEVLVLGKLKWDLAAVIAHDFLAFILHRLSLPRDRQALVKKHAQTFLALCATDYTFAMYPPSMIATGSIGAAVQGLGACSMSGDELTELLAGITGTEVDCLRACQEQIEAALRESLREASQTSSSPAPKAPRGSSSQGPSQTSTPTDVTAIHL

| SMILES | IC50 (CDK4/CyclinD1; CDK4/CyclinD1, 200 μM ATP) [nM] | IC50 (CDK2/CyclinE1; [1]) [nM] | IC50 (CDK6/CyclinD3; CDK6/CyclinD3, 300 μM ATP) [nM] | also measured |
| --- | --- | --- | --- | --- |
| C=CC(=O)Nc1cc(Nc2ncc(F)c(-c3ccn4nc(C)c(C)c4c3)n2)c(OC)cc1N(C)CCN(C)C [Compound 10 disclosed in CN109503573A, reference compound] |  |  |  | IC50 (CDK4/CyclinD1; comparative compound): > 10000 nM; IC50 (CDK6/CyclinD3; comparative compound): > 10000 nM |
| CC(C)c1cnn2ccc(-c3ccnc(Nc4ccc(N5CCC(N(C)C)CC5=O)cn4)n3)cc12 (stereo not shown) [Synthetic Example 16] | < 10 | 10 to 100 | < 10 |  |
| CCN1CCN(Cc2ccc(Nc3ncc(F)c(-c4cc5c(C(C)C)n(C)nc5cn4)n3)nc2)CC1 [Synthetic Example 58] | 100 to 1000 |  | > 1000 | IC50 (T47D breast cancer cells): > 1000 nM |
| CCN1CCN(Cc2ccc(Nc3ncc(F)c(-c4cn5c(C(C)C)cnc5c(OC)n4)n3)nc2)CC1 [Synthetic Example 60] | 10 to 100 |  | 100 to 1000 |  |
| COc1nc(-c2nc(Nc3ccc(N4CCN(CCS(C)(=O)=O)CC4=O)cn3)ncc2F)cc2c1nc(C)n2C(C)C [Synthetic Example 121] | < 10 | > 1000 | 10 to 100 |  |
| COc1nc(-c2nc(Nc3ccc(N4CCN(C5CNC5)CC4=O)cn3)ncc2F)cc2c1nc(C)n2C(C)C [Synthetic Example 138] | < 10 | 100 to 1000 | 10 to 100 |  |
| CC(C)N1CCN(c2ccc(Nc3nccc(-c4cc5c(ncn5C(C)C)c(F)n4)n3)nc2)CC1 [Synthetic Example 287] | < 10 | 100 to 1000 | 10 to 100 |  |
| CC(C)c1cnn2ccc(-c3nc(Nc4ccc(N5CCOCC5)cn4)ncc3F)cc12 [compound 13] | 10 to 100 |  | 10 to 100 | IC50 (T47D breast cancer cells): 100 to 500 nM |
| O=C1COCCN1c1ccc(Nc2ncc(F)c(-c3ccn4ncc(C5=CCOCC5)c4c3)n2)nc1 [compound 17] | 10 to 100 |  | 100 to 1000 |  |
| O=C1COCCN1c1ccc(Nc2ncc(F)c(-c3ccn4ncc(C5CCOCC5)c4c3)n2)nc1 [compound 18] | 10 to 100 |  | 100 to 1000 | IC50 (T47D breast cancer cells): 500 to 1000 nM |
| C=C(C)c1cnn2ccc(-c3nc(Nc4ccc(CN5CCN(CC)CC5)cn4)ncc3F)cc12 [compound 19] | 10 to 100 |  | 100 to 1000 |  |
| CCN1CCN(Cc2ccc(Nc3ncc(F)c(-c4ccn5ncc(Br)c5c4)n3)nc2)CC1 [compound 20] | 100 to 1000 |  | > 1000 |  |
| CCN1CCN(Cc2ccc(Nc3ncc(F)c(-c4ccn5ncc(C(C)C)c5c4)n3)nc2)CC1 [compound 22] | < 10 |  | 10 to 100 |  |
| CC(C)c1cnn2ccc(-c3nc(Nc4ccc(N5CCOCC5=O)c(C(F)(F)F)c4)ncc3F)cc12 [compound 23] | 10 to 100 |  | 10 to 100 | IC50 (T47D breast cancer cells): 500 to 1000 nM |
| CCN1CCN(Cc2cccc(Nc3ncc(F)c(-c4ccn5ncc(C(C)C)c5c4)n3)n2)CC1 [compound 24] | 100 to 1000 |  | > 1000 |  |
| CCn1cnc2c(OC)nc(-c3nc(Nc4ccc(N5CCOCC5=O)cn4)ncc3F)cc21 [compound 84] |  |  |  | IC50 (CDK4/CyclinD1; CDK4/CyclinD1): 10 to 100 nM; IC50 (CDK2/CyclinE1; [2]): > 1000 nM; IC50 (CDK6/CyclinD3; CDK6/CyclinD3): 100 to 1000 nM |

| SMILES | IC50 (CDK4/CyclinD1; CDK4/CyclinD1, 200 μM ATP) [nM] | IC50 (CDK2/CyclinE1; [1]) [nM] | IC50 (CDK6/CyclinD3; CDK6/CyclinD3, 300 μM ATP) [nM] | also measured |
| --- | --- | --- | --- | --- |
| CCN1CCN(Cc2ccc(Nc3ncc(F)c(-c4cc5c(ncn5C(C)C)c(OC)n4)n3)nc2)CC1 [compound 87] |  |  |  | IC50 (CDK4/CyclinD1; CDK4/CyclinD1): < 10 nM; IC50 (CDK6/CyclinD3; CDK6/CyclinD3): 10 to 100 nM; IC50 (T47D breast cancer cells): 100 to 500 nM |
| COc1nc(-c2nc(Nc3ccc(N4CCOCC4=O)cc3F)ncc2F)cc2c1nc(C)n2C(C)C [compound 92] |  |  |  | IC50 (CDK4/CyclinD1; CDK4/CyclinD1): < 10 nM; IC50 (CDK2/CyclinE1; [2]): 10 to 100 nM; IC50 (CDK6/CyclinD3; CDK6/CyclinD3): 10 to 100 nM |
| CCN1CCN(Cc2ccc(Nc3ncc(F)c(-c4cc5c(nc(C)n5C(C)C)c(OC)n4)n3)nc2)CC1 [compound 95] |  |  |  | IC50 (CDK4/CyclinD1; CDK4/CyclinD1): 10 to 100 nM; IC50 (CDK2/CyclinE1; [2]): > 1000 nM; IC50 (CDK6/CyclinD3; CDK6/CyclinD3): 10 to 100 nM |
| COc1nc(-c2nc(Nc3ccc(CN4CCN5CCCC5C4)cn3)ncc2F)cc2c1nc(C)n2C(C)C (stereo not shown) [compound 101] |  |  |  | IC50 (CDK4/CyclinD1; CDK4/CyclinD1): 10 to 100 nM; IC50 (CDK6/CyclinD3; CDK6/CyclinD3): 10 to 100 nM |
| COc1nc(-c2nc(NC3CCN(S(C)(=O)=O)CC3)ncc2F)cc2c1nc(C)n2C(C)C [compound 102] |  |  |  | IC50 (CDK4/CyclinD1; CDK4/CyclinD1): 10 to 100 nM; IC50 (CDK2/CyclinE1; [2]): 100 to 1000 nM; IC50 (CDK6/CyclinD3; CDK6/CyclinD3): 100 to 1000 nM |
| COc1nc(-c2nc(Nc3ccc(N4CCN(C5CCNCC5)CC4=O)cn3)ncc2F)cc2c1nc(C)n2C(C)C [compound 139] | < 10 | > 1000 | < 10 |  |
| Cc1nn2ccc(-c3ccnc(Nc4ccc(N5CCC(N(C)C)CC5=O)cc4)n3)cc2c1C(C)C (stereo not shown) [compound 177] | < 10 | < 10 | < 10 |  |
| CC(C)c1cnn2ccc(-c3ccnc(Nc4ccc5c(c4)CS(=O)(=O)C5)n3)cc12 [compound 179] | < 10 | < 10 | < 10 |  |
| CC(C)c1cnn2ccc(-c3ccnc(Nc4ccc(N5CCC(O)CC5=O)cn4)n3)cc12 (stereo not shown) [compound 183] | 10 to 100 | 10 to 100 | 10 to 100 |  |
| CNC1CCN(C(=O)c2ccc(Nc3nccc(-c4ccn5ncc(C(C)C)c5c4)n3)cc2)C1 (stereo not shown) [compound 189] | < 10 |  | < 10 | IC50 (CDK2/CyclinE1): < 10 nM |
| CC(C)c1cnn2ccc(-c3ccnc(Nc4ccc(N5CCC(C)(N)CC5=O)cc4F)n3)cc12 (stereo not shown) [compound 213] | < 10 | < 10 | 10 to 100 |  |
| CC(C)c1cnn2ccc(-c3ccnc(Nc4ccc(N5CCNCC5=O)cc4F)n3)cc12 [compound 224] | < 10 | < 10 | 10 to 100 |  |
| CC(C)(C)c1cnn2ccc(-c3ccnc(Nc4ccc(N5CCNCC5=O)cc4F)n3)cc12 [compound 225] | < 10 | < 10 | 10 to 100 |  |
| Cc1nc2c(F)nc(-c3ccnc(Nc4ccc(S(N)(=O)=O)cc4)n3)cc2n1C(C)C [compound 288] | 10 to 100 | < 10 | 10 to 100 |  |
| CC(C)n1cnc2c(F)nc(-c3ccnc(Nc4ccc(N5CCC(C)(N)CC5=O)cc4F)n3)cc21 (stereo not shown) [compound 292] | < 10 | < 10 | < 10 |  |
| CC(C)n1cnc2c(F)nc(-c3ccnc(Nc4ccc(S(N)(=O)=O)cc4)n3)cc21 [compound 297] | < 10 | < 10 | 10 to 100 |  |
